# Test results taken from US20050054620A1, “Paricalcitol as a chemotherapeutic agent” (priority 2003, published 2005).
# Tests used:
# HL-60 cells [1] = assay: CD14 expression by flow cytometry; assay type: cell-based, human
# Method: In order to measure cell surface CD14 antigen on HL-60 cells, promyelocytic leukemia cell line, HL-60, was treated with either 1,25(OH)2D3 or paricalcitol (10^−7M) for 4 days and examined for CD14 expression by flow cytometry using CD14 antibody (DAKO, Carpinteria, Calif.), as described previously (Hisatake et al., supra, 2001). Murine IgG1 antibody (DAKO) was used as a control.
# Measurement of cell surface CD14 antigen on HL-60 cells by flow cytometry using CD14 antibody (DAKO, Carpinteria, Calif.), was determined as described previously (Hisatake et al. Blood 97:2427-2433 (2001)). Murine IgG1 antibody (DAKO) was used as a control.
# SW837 cells = assay: Western blot of cell lysates; assay type: cell-based, human; conditions: 10^−7M, 72 hrs
# Method: (§1) Western blot analysis was used to determine the levels of proteins involved in cell cycle and differentiation. […] After centrifugation at 15,000×g for 15 min at 4° C., the suspension was collected. Protein concentrations were quantitated using the Bio-Rad assay (Bio-Rad Labolatories, Hercules, Calif.). […] The blots were developed using the Supersignal West Pico Chemiluminescent Substrate Kit (Pierce, Rockford, Ill.). In FIG. 4C, HT-29 and SW837 cells were cultured with either paricalcitol (10^−7M) or 1,25(OH)2D3 (10^−7M) for 72 hrs. Cell lysates were prepared and analyzed by Western blot which was probed sequentially with antibodies to COX-1 and COX-2 (Santa Cruz Biotechnology). Control cells were treated with vehicle alone. The amount of protein was normalized by comparison to the quantity of GAPDH.
# NB-4 cells = assay: Western blot of cell lysates; assay type: cell-based, human; conditions: 10^−7 M, 72 hrs
# Method: (§2) Western blot analysis was used to determine the levels of proteins involved in cell cycle and differentiation. For western blot analysis, cells were washed twice in PBS, suspended in lysis buffer [50 mM Tris (pH 8.0), 150 mM NaCl, 0.1% SDS, 0.5% sodium deoxycholate, 1% NP40, […] phenylmethylsulfonyl fluoride, […] aprotinin, […] pepstatin, and […] leupetin] and placed on ice for 30 min. After centrifugation at 15,000×g for 15 min at 4° C., the suspension was collected. Protein concentrations were quantitated using the Bio-Rad assay (Bio-Rad Labolatories, Hercules, Calif.). Whole lysates ([…]) were resolved by 4-15% SDS polyacrylamide gel, transferred to an immobilon polyvinylidene difuride membrane (Amersham Corp., Arlington Heights, Ill.), and probed sequentially with a number of antibodies (p21WAF1, p27KIP1, PTEN, and GAPDH, Santa Cruz Biotechnology Inc., Santa Cruz, Calif.). The blots were developed using the Supersignal West Pico Chemiluminescent Substrate Kit (Pierce, Rockford, Ill.).
# (§3) Western blot analysis was performed as follows: cells were washed twice in PBS, suspended in lysis buffer (50 mM Tris at pH 8.0, 150 mM NaCl, 0.1% SDS, 0.5% sodium deoxycholate, 1% Nonidet P-40, phenylmethylsulfonyl fluoride at 100 μg/mL, aprotinin at 2 μg/mL, pepstatin at 1 μg/mL, and leupetin at 10 μg/mL), and placed on ice for 30 minutes. After centrifugation at 15,000×g for 15 minutes at 4° C., the suspension was collected. Protein concentrations were quantitated by using the Bio-Rad protein Assay Dye Reagent Concentrate (Bio-Rad Laboratories, Hercules, Calif.) according to the manufacture's recommendation. Whole cell lysates (40 μg) were resolved by SDS-polyacrylamide gel electrophoresis in a 4%-15% gel, transferred to a polyvinylidene difuride membrane (Immobilon, Amersham Corp., Arlington Heights, Ill.), and probed sequentially with antibodies against the following proteins: VDR, RXR, CEBPβ, Rb, Bcl-2, Bcl-XL, Bax, p-ERK, RARA, GAPDH (Santa Cruz Biotechnology Inc., Santa Cruz, CA). The blots were developed using the Supersignal West Pico Chemiluminescent Substrate Kit (Pierce, Rockford, Ill.).
# HL-60 cells [2] = assay: Western blot of cell lysates; assay type: cell-based, human
# Method: as §2, §3
# NCI-H929 cells [3] = assay: Cell cycle analysis by flow cytometry; assay type: cell-based, human; conditions: 10^−7M, 72 hrs
# Method: For cell cycle analysis, cells were exposed to 10^−7M 1,25(OH)2D3, 10^−7M paricalcitol or vehicle control for either 3 or 4 days. Total cells, both in suspension and adherent, were collected, washed, suspended in cold PBS. Then cells were fixed in 75% chilled methanol and stained with propidium iodine. Cell cycle status was analyzed on a Becton Dickinson Flow Cytometer.
# HCI-H929 cells were cultured with either paricalcitol (10^−7M) or 1,25(OH)2D3 (10^−7M) for 72 hrs, harvested and stained with propidium iodine (PI). Control cells were treated with vehicle alone.
# NCI-H929 cells [4] = assay: TUNEL assay of apoptosis; assay type: cell-based, human; conditions: 10^−7M, 96 hrs, diluant control 4%
# Method: In FIG. […] Results represent the mean±SD of three independent experiments. A TUNEL assay was performed for immunohistochemical detection and quantification of programmed cell death at the single cell level, based on labeling of DNA strand breaks using the In Situ Cell Death Detection, POD (Roche, Indianapolis, Ind.). Early apoptosis was also detected by measuring annexin V protein in the cell membrane using Annexin V-FITC Kit (CLONTECH, Palo Alto, Calif.) followed by flow cytometric analysis.
# HT-29 cells = assay: Western blot of cell lysates; assay type: cell-based, human; conditions: 10^−7M, 72 hrs
# Method: as §1, with “FIG. 4B, HT-29 cells were exposed to either paricalcitol (10^−7M) or 1,25(OH)2D3(10^−7M). Cell lysates were prepared after 72 hrs of culture and analyzed by Western blot. The Western blot was probed sequentially with antibodies for p27KIP1, p21WAF1, cyclin D1, c-myc and E-Cadherin (antibodies from Santa Cruz Biotechnology) as described in Example II. Control cells were treated with vehicle alone. The quantity of protein was normalized by comparison to the amount of GAPDH. In FIG.” for “FIG.”
# NCI-H929 cells [5] = assay: Western blot of cell lysates; assay type: cell-based, human; conditions: 10^−7M
# Method: Western blot analysis was used to determine the levels of proteins involved in cell cycle and differentiation. […] After centrifugation at 15,000×g for 15 min at 4° C., the suspension was collected. Protein concentrations were quantitated using the Bio-Rad assay (Bio-Rad Labolatories, Hercules, Calif.). […] The blots were developed using the Supersignal West Pico Chemiluminescent Substrate Kit (Pierce, Rockford, Ill.). In FIG. 3C, NCI-H929 cells were treated with either paricalcitol (10^−7M) or 1,25(OH)2D3 (10^−7M) and cell lysates were prepared after 72 hrs. Cell lysates were used for Western blot analysis and probed sequentially with antibodies to p27KIP1, Bcl-2 and Bax. Control cells were treated with vehicle alone. Amount of protein was normalized by comparison to the amount of GAPDH. […] The Bcl-2 and Bax antibodies were obtained from Santa Cruz Biotechnology Inc., Santa Cruz, Calif.
# [6] = humans, cited from earlier work
structure (smiles),measurement,setting,value
COc1cccc(-c2cc(=O)c3ccccc3o2)c1N [PD98059],monocytic differentiation (CD14) induced by paricalcitol and by the combination with arsenic trioxide,"HL-60 cells [1]; PD98059 25 μM, 2 days",blocked
"C=C1/C(=C\C=C2/CCC[C@]3(C)[C@@H]([C@H](C)CCCC(C)(C)O)CC[C@@H]23)C[C@@H](O)C[C@@H]1O [1,25(OH)2D3]",decrease of COX-2 expression,SW837 cells,50%
same,effect on COX-1 expression,SW837 cells,suppressed COX-2 but not COX-1 expression
same,PTEN expression (in words),NB-4 cells,induced PTEN expression
same,induction of p21WAF1,"HL-60 cells [2]; 10^−7M, 72 hr",approximately 7 fold
same,induction of p27KIP1,"HL-60 cells [2]; 10^−7M, 72 hr",about 6 fold
same,PTEN expression (in words),"HL-60 cells [2]; 10^−7 M, 72 hrs",induced PTEN expression
same,increase of accumulation in G1/G0 phase,NCI-H929 cells [3],7%
same,increase in apoptotic sub-G1 population,NCI-H929 cells [3]; diluant control 4% sub-G1,16%
same,apoptotic cells (TUNEL),NCI-H929 cells [4],20%
same,decrease of COX-2 expression,HT-29 cells,50%
same,decrease of c-myc expression,HT-29 cells,~40%
same,decrease of cyclin D1 expression,HT-29 cells,about 50%
same,effect on COX-1 expression,HT-29 cells,suppressed COX-2 but not COX-1 expression
same,increase of E-cadherin,HT-29 cells,about 6 fold
same,decrease of Bcl-2 protein level,NCI-H929 cells [5]; 72 hrs,about 40%
same,effect on levels of Bax,NCI-H929 cells [5]; 72 hrs,did not affect
same,effect on levels of p21WAF1,NCI-H929 cells [5]; 96 hrs,little effect
same,increase of p27KIP1 expression,NCI-H929 cells [5]; 96 hrs,about 3 fold
same,serum half-life,"[6]; paricalcitol compared with 1,25(OH)2D3",similar
same,peak serum levels,[6]; typical dose 0.5 to 1.0 mg/every other day,40 to 60 pg/mL
same,cells induced to express CD14,"HL-60 cells [1]; 10^−7M, 96 hrs",54%
